Measurements as given in PubChem BioAssay AID1648 (Sanford-Burnham Center for Chemical Genomics, 2009).
Calls of active or inactive are those of the source. No rule for the calls is given here.

Target: Serine/threonine-protein kinase mTOR (Homo sapiens) (UniProt P42345)
Experiment: mTOR FRB domain ligand binding – biophysical, NMR (AID 1648)
Conditions: NMR binding to FRB domain, chemical shift

Chain of Serine/threonine-protein kinase mTOR (Homo sapiens) (P42345 2015-2114): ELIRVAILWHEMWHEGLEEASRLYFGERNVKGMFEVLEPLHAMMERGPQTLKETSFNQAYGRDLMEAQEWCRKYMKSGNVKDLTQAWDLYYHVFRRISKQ

Row | Compound | Kd
1 | CCOc1ccc(C(=O)c2ccc(OC)c(O)c2O)cc1 | > 4 mM (inactive)
2 | CC(O)C(=O)N/N=C/c1ccccc1 (configuration not stated) | > 4 mM (inactive)
3 | NC(=O)CSc1nnc(-c2cccnc2)o1 | > 4 mM (inactive)
4 | O=c1[nH]c2c(c(=O)n1C1CCCCC1)CCC2 | > 4 mM (inactive)
5 | COC[C@]12CN(C=O)C3[C@@H]4[C@H](OC)C1[C@]3(C1CC3(O)C(OC)C(O)C4(OC(C)=O)C1C3OC(=O)c1ccccc1)[C@@H](OC)C[C@H]2O (some centres not stated) | > 4 mM (inactive)
6 | O=C1C2C3CCC(O3)C2C(=O)N1c1cccc(F)c1 (configuration not stated) | > 4 mM (inactive)
7 | NC(CSCSCC(N)C(=O)O)C(=O)O (configuration not stated) | > 4 mM (inactive)
8 | CCC[C@@H]1CCCCN1 | > 4 mM (inactive)
9 | O=C(O)c1ncoc1-c1ccccc1 | > 4 mM (inactive)
10 | O=C(Nc1nnc(-c2ccco2)o1)c1ccc([N+](=O)[O-])o1 | > 4 mM (inactive)
11 | CC(C)CCCC(C)[C@H]1CCC2C3CC[C@@H]4C[C@H](O)CC[C@]4(C)C3CC[C@@]21C (some centres not stated) | > 4 mM (inactive)
12 | COC(=O)CCSCC(=O)Nc1nnc(C)s1 | > 4 mM (inactive)
13 | O=S1(=O)C=CC(N2CCCCC2)C1 (configuration not stated) | > 4 mM (inactive)
14 | O=C1C2C3CCC(O3)C2C(=O)N1c1ccccc1 (configuration not stated) | > 4 mM (inactive)
15 | Cc1cc(C)n(CC(=O)O)n1 | > 4 mM (inactive)
16 | O=S(=O)(N1CCCCC1)n1nnc2ccccc21 | > 4 mM (inactive)
17 | COCCOc1nc2ccccc2nc1C | > 4 mM (inactive)
18 | CC(O)c1ccc(C(C)O)cc1 (configuration not stated) | > 4 mM (inactive)
19 | O=C(c1ccccc1)c1ccc(N2CCNCC2)cc1 | > 4 mM (inactive)
20 | CC1CCN(S(=O)(=O)N(C)C)CC1 | > 4 mM (inactive)
21 | COC(=O)CCC(C)[C@H]1CCC2C3C(C[C@H](O)[C@@]21C)[C@@]1(C)CC[C@@H](O)C[C@H]1C[C@H]3O (some centres not stated) | > 4 mM (inactive)
22 | Clc1ccccc1OCc1nc(-c2ccncc2)no1 | > 4 mM (inactive)

Row | Compound | Kd
23 | CC(C)(O)CC[C@@H](O)[C@](C)(O)C1CC[C@@]2(O)C3=CC(=O)C4C[C@@H](O)[C@@H](O)C[C@]4(C)C3CC[C@]12C (some centres not stated) | > 4 mM (inactive)
24 | O=C(Nc1ccc2c(c1)OCO2)c1c(F)cccc1F | > 4 mM (inactive)
25 | CC(C)(C(N)=O)/[N+]([O-])=C\c1ccccc1 | > 4 mM (inactive)
26 | Cc1scc(C(=O)Nn2cnnc2)c1-c1ccccc1 | > 4 mM (inactive)
27 | Cc1cc2cc(N)ccc2[nH]1 | > 4 mM (inactive)
28 | CC(=O)O[C@H]1CC[C@@]2(C)C(CC[C@]3(C)C2CC=C2C4CC(C)(C)CC[C@]4(C)CC[C@]23C)C1(C)C (some centres not stated) | > 4 mM (inactive)
29 | CCOC(=O)c1c(C)nc2c(C#N)cnn2c1C | > 4 mM (inactive)
30 | NC(=O)C1CCN(CN2C(=O)c3ccccc3C2=O)CC1 | > 4 mM (inactive)
31 | O=S1(=O)C=CC(Nc2ccccc2)C1 (configuration not stated) | > 4 mM (inactive)
32 | COCC(=O)NC1CC(C)(C)NC(C)(C)C1 | > 4 mM (inactive)
33 | CC(=O)O[C@@H]1CC2C(C)(CC[C@H](O)C2(C)C)C2CC[C@]3(C)C(=CC(=O)O[C@H]3c3ccoc3)C21C (some centres not stated) | > 4 mM (inactive)
34 | COc1ccc2c(c1)C(NC(C)=O)C(=O)N2C (configuration not stated) | > 4 mM (inactive)
35 | Clc1ccccc1OCc1nc(-c2ccccn2)no1 | > 4 mM (inactive)
36 | Cc1nccc(-c2cccc(N)c2)n1 | > 4 mM (inactive)
37 | CC1(O)CC2C=CC1C2 (configuration not stated) | > 4 mM (inactive)
38 | Cn1ncc(C(=O)O)c1-c1ccccc1 | > 4 mM (inactive)
39 | CCOC(=O)c1c(C)nc2sccn12 | > 4 mM (inactive)
40 | CCOC(=O)c1ccc(F)c(F)c1 | > 4 mM (inactive)
41 | Cc1cc(O)c(NC(=O)c2ccco2)cc1C | > 4 mM (inactive)
42 | O=C(NC1=NCCS1)c1ccc(Cl)s1 | > 4 mM (inactive)
43 | NC(=O)c1ccc(SCC(=O)O)c([N+](=O)[O-])c1 | > 4 mM (inactive)
44 | CCn1c(C)c(C(C)=O)c(N2CCOCC2)nc1=S | > 4 mM (inactive)

Row | Compound | Kd
45 | O=C(O)C1CNc2ccccc2O1 (configuration not stated) | > 4 mM (inactive)
46 | CSc1cc(C)[nH]c(=O)n1 | > 4 mM (inactive)
47 | O=C1CS/C(=N/N=C2CCCC2)N1 | > 4 mM (inactive)
48 | c1ccc(Cc2nnc(-c3ccccc3)o2)cc1 | > 4 mM (inactive)
49 | Nc1nonc1-c1nc2ccccc2[nH]1 | > 4 mM (inactive)
50 | N=c1n(N)c2ccccc2n1CCO | > 4 mM (inactive)
51 | O=C(Nn1cnnc1)c1ccccc1Cl | > 4 mM (inactive)
52 | COc1cccc(NC(=O)c2ocnc2C)c1 | > 4 mM (inactive)
53 | CCN1C(=O)c2c(C)nc3ccccc3c2C1=O | > 4 mM (inactive)
54 | Nc1nc2ccc(C(=O)O)cc2s1 | > 4 mM (inactive)
55 | CCNC(CC(=O)Nc1cccc([N+](=O)[O-])c1)C(=O)O (configuration not stated) | > 4 mM (inactive)
56 | CC(=O)Nc1cc(C(N)=O)cc(C(N)=O)c1 | > 4 mM (inactive)
57 | Cc1cccc(NC(=O)c2ccccc2C(=O)O)c1 | > 4 mM (inactive)
58 | CNC(=O)C(=O)Nc1ccc(F)cc1 | > 4 mM (inactive)
59 | OC1(c2ccc(Cl)cc2)CCNCC1 | > 4 mM (inactive)
60 | CC(=O)c1sc(NC(=O)C=C(C)C)nc1C | > 4 mM (inactive)
61 | NC(=O)CSc1nc2ccccc2o1 | > 4 mM (inactive)
62 | O=S1(=O)CCC(N2CCCCC2)C1 (configuration not stated) | > 4 mM (inactive)
63 | O=C(Nc1nc2ccccc2s1)c1ccc(=O)[nH]n1 | > 4 mM (inactive)
64 | CC(=O)c1ccc(NC(=S)N2CCC(O)CC2)cc1 | > 4 mM (inactive)
65 | Cc1c(C(=O)OC(C)C)[nH]c2c1C(=O)CCC2 | > 4 mM (inactive)
66 | N#Cc1nc(-c2ccccc2Cl)oc1N1CCOCC1 | > 4 mM (inactive)

Row | Compound | Kd
67 | C1CCN2C[C@@H]3C[C@H](CN4CCCC[C@@H]34)[C@H]2C1 | > 4 mM (inactive)
68 | Cc1ccc(-n2nnnc2SCC(N)=O)c(C)c1 | > 4 mM (inactive)
69 | NN1C(=O)/C(=C/c2ccc(O)c(O)c2)SC1=S | > 4 mM (inactive)
70 | NC(=O)CS(=O)(=O)c1ccc(Cl)cc1 | > 4 mM (inactive)
71 | CC1(C)NC(=O)N(CCOc2ccc3c(c2)CCC3)C1=O | > 4 mM (inactive)
72 | O=c1c2ccccc2nc2n1CCCCN2 | > 4 mM (inactive)
73 | CC(Sc1ncn[nH]1)C(=O)O (configuration not stated) | > 4 mM (inactive)
74 | O=C(Cc1c(F)cccc1Cl)Nc1ccon1 | > 4 mM (inactive)
75 | Cc1ccccc1NC(=O)C1CCC(=O)N1 (configuration not stated) | > 4 mM (inactive)
76 | Cc1noc(C)c1C(=O)N1CCc2ccccc21 | > 4 mM (inactive)
77 | NC(=O)c1ccc(NC(=O)C2CC2)cc1 | > 4 mM (inactive)
78 | OCC1=Cc2ccccc2OC1 | > 4 mM (inactive)
79 | CCN(CC)S(=O)(=O)c1cccc2nsnc12 | > 4 mM (inactive)
80 | CN1CCN(C2CCSC2)CC1 (configuration not stated) | > 4 mM (inactive)
81 | CCC[C@H]1CC2=C(C[C@@H](CC)CC3=C1C(=O)OC3=O)C(=O)OC2=O | > 4 mM (inactive)
82 | O=C(/C=C(\O)c1ccccc1)c1ccccc1O | > 4 mM (inactive)
83 | NC(=O)COc1cccc2cccnc12 | > 4 mM (inactive)
84 | Cc1oc(-c2ccccc2)nc1CCO | > 4 mM (inactive)
85 | O=C(O)Cc1n[nH]c(=O)c2ccccc12 | > 4 mM (inactive)
86 | COc1ccc(CN2CCC(O)CC2)c(O)c1 | > 4 mM (inactive)
87 | NCC(O)c1ccc(O)cc1 (configuration not stated) | > 4 mM (inactive)
